Entries after “also recorded” stand apart in the source; their conditions may differ.
How the values were obtained:
[1] = test system: HSP70; experiment: Western blot of HSP70 polypeptide levels in RIF-1 cells (N-27 antibody); type: cell-based, murine
Method: Western Blot Analysis In general, following separation of cellular proteins by sodium dodecyl sulfate (SDS)-polyacrylamide gel electrophoresis, separated proteins were electroblotted onto a nitrocellulose membrane using a 25 mM Tris-HCl/192 mM glycine/20% (v/v) methanol transfer buffer (pH 8.3) in a Trans-Blot apparatus (Bio-Rad, Richmond, Calif.) at 15 V and 100 mA for 12 to 14 h. The blot was blocked in 5% nonfat dry milk in TBS (50 mM Tris containing 0.2 M NaCl, pH 7.4) at room temperature for 1h; this step and all following steps were done with continuous agitation. The primary antibody was diluted 1:200 in 3% nonfat dry milk in TBS, and the blot was incubated for 16 to 24 h at 4° C. […]
RIF-1 cells were grown for 7 days in the presence of 2% DMSO as in Example 9. After the seventh day, cells were heated at 45° C. for 10 min, and were analyzed either immediately by SDS gel/Western blot analysis, or after an additional 18 hour growth period at 37° C. to allow synthesis of heat-inducible HSP70 polypeptides. […]
In a parallel set of experiments, heating of the mock- and gene-transfectedcells was performed in the presence or absence of 20 mM TEA, and the expression of HSP70 proteins was determined by immunoblot analysis, using the HSP70-specific N-27 antibody as in Example 10.

[2] = test system: voltage-dependent potassium currents in RIF-1 cells; experiment: Whole-cell voltage-clamp recording of heat-inducible potassium currents in DMSO-treated RIF-1 cells; type: cell-based, murine; conditions: RIF-1 cells grown in 2% DMSO
Method: (§1) Voltage-Clamp Recordings.
The potassium currents of RIF-1 cells grown in the presence of 2% DMSO as above (Example 7) were determined in the presence and absence of 20 mM TEA following heating of the cells at 45° C. for 10 minutes, as in Example 2.

[3] = test system: RIF-1 cells; experiment: Clonogenic survival assay after heating at 45° C., RIF-1 cells; type: cell-based, murine
Method: RIF-1 cells were grown at 37° C. in RPMI-1640 medium supplemented with 10% FBS and 2% (v/v) DMSO (dimethylsulfoxide). After seven days of growth, the medium was replaced with DMSO-free medium, and the heat sensitivity of the cells in the presence and absence of 20 mM TEA was determined by clonogenic assay as in Example 4. The results are shown in FIGS. 7A and 7B, with survival data for non-DMSO-treated RIF-1 cells shown for comparison.

[4] = test system: K+ channel proteins recognized by antibody ShA-3; experiment: Western blot of K+ channel proteins in RIF-1 cells (ShA-3 antibody); type: cell-based, murine; conditions: RIF-1 cells grown in 2% DMSO for 3, 5, 7 days
Method: Western Blot Analysis In general, following separation of cellular proteins by sodium dodecyl sulfate (SDS)-polyacrylamide gel electrophoresis, separated proteins were electroblotted onto a nitrocellulose membrane using a 25 mM Tris-HCl/192 mM glycine/20% (v/v) methanol transfer buffer (pH 8.3) in a Trans-Blot apparatus (Bio-Rad, Richmond, Calif.) at 15 V and 100 mA for 12 to 14 h. The blot was blocked in 5% nonfat dry milk in TBS (50 mM Tris containing 0.2 M NaCl, pH 7.4) at room temperature for 1h; this step and all following steps were done with continuous agitation. The primary antibody was diluted 1:200 in 3% nonfat dry milk in TBS, and the blot was incubated for 16 to 24 h at 4° C. The blot was washed with TBS three times for 10 min per wash, and incubated for 2 h at room temperature with a 1:500 dilution of alkaline phosphatase-conjugated antispecies antibody. After washing with TBS as above, the blot was developed by incubation for 20 min in a solution containing 3-hydroxy-2-naphthoic acid 2,4-dimethylanilide phosphate (1 μg/ml ) and fast red (2 μg/ml) in TBS buffer. The developed blot was washed in distilled, deionized water to stop the color reaction.
RIF-1 and TR-4 cells were grown in exponential phase at 37° C. in RPMI-1640 medium supplemented with 10% FBS. […]

[5] = test system: voltage-dependent potassium currents in A549 cells; experiment: Whole-cell voltage-clamp recording of K+ currents in non-irradiated A549 cells after chemical treatment; type: cell-based, human
Method: Voltage-Clamp Recordings. Whole-cell recording was performed by voltage clamp analysis as described by Hamill et al. (1981). In general, prior to whole cell recording, the cell medium was replaced with serum-free medium to ensure a better giga-ohm seal. […] Glass electrodes having a tip resistance of 3-7 Mohms were sylgarded (with Sylgard, Dow Chemical) and backfilled with a solution containing 140 mM KCl, 2 mM MgCl2, 11 mM EGTA, 1 mM CaCl2, and 10 mM Hepes, pH 7.2. […] A test pulse of 20 mV was applied, and the cell was then aspirated against the tip of the microelectrode. The membrane seal resistance was determined from the reduction in voltage of the test pulse.
Membrane currents were filtered at 2 kHz using a 4-pole low pass Bessel filter before sampling with a 12-bit digital-analog converter controlled by a Labmaster board (Scientific Solutions) in an IBM AT computer. Leakage currents were subtracted from the total currents measured at each voltage either by using a p,p/4 algorithm (Armstrong and Bezanilla, 1974) built into the software (INDEC Systems, Santa Cruz, Calif.), or after determining the linear component from the current-voltage (I-V) relation near the holding potential of -75 mV. The limit of sensitivity of the current measurements in these experiments was about 50-60 pA.

[6] = test system: voltage-dependent potassium currents in A549 cells; experiment: Whole-cell voltage-clamp recording of radiation-induced K+ currents in A549 cells; type: cell-based, human
Method: as §1
In a second study, to determine whether the induced currents -were affected by the presence of TEA, A549 cells were exposed to 150 cGy of 137Cs γ-irradiation, and the radiation-induced currents were measured under three different conditions: (a) directly after irradiation, (b) after replacement of the bath solution with medium containing 20 mM TEA and (c) after the TEA solution of step (b) had been replaced with TEA-free medium.
A549 cells grown as described in the Materials and Methods section were preincubated for 1 h in medium containing 20 mM N-acetylcysteine (NAC) (Schreck et al., 1991). The cells, still in the presence of NAC, were then irradiated (150 cGy), and the induced currents were recorded. The results are shown in FIG. 19 (open circles, irradiation without NAC preincubation; open triangles, preincubation with 20 mM NAC; solid circles, non-irradiated control cells).

[7] = test system: heat shock factor (HSF)
Method: To determine whether the presence of TEA during heating prevented the activation of heat shock factor (HSF), RIF-1 and TR-4 cells grown as in Example 1 were heated at 45° C. for 15-40 minutes in the presence or absence of 20 mM TEA in the medium. After being washed with fresh medium (no TEA), the cells were harvested, and gel retardation assays were performed as described by Zimarino et al. (1987), except that the electrophoresis was performed on a 4.5% native polyacrylamide gel in 0.5X TBE buffer (45 mM Tris-borate, 1 mM EDTA) at 140 V at room temperature for 2.5 h. The gel was fixed by soaking in 7% acetic acid for 5 min, rinsed briefly in distilled water, and dried on Whatman 3 MM chromatography paper. The gel was then autoradiographed by exposing Kodak XAR-2 film to the gels at -70° C. with intensifying screens (Cronex Lighting Plus, Dupont).

[8] = test system: TR-4 cells; conditions: 20 mM TEA during 45° C. 40 min heating step and/or 12 h 37° C. incubation
Method: The development of thermotolerance in TR-4 cells in the presence or absence of 20 mM TEA was assessed by heating the cells at 45° C. for 40 min, followed by a 12 h incubation at 37° C. (Hahn and van Kersen, 1988), and assessment of cell survival following heating and clonogenic assay as described in Example 4. Five groups of TR-4 cells (a to e) were examined, differing only as to which steps of the procedure included TEA in the cell medium.

[9] = test system: A549 cells; conditions: 20 mM TEA in cell medium during irradiation, doses greater than about 200 cGy
Method: γ-irradiation. Cells were irradiated at room temperature using a ^137 [Cs] source at a dose rate of 150 cGy/min. The ^137 [Cs] source consisted of a Mark I irradiator (model 30, 2000 Ci ^137 [Cs]) from J. L. Shepherd and Associates (Glendale, Calif.). Unless noted otherwise, the cells were incubated at 37° C. after irradiation for further characterization.
In another experiment, cell survival of A549 cells was measured as a function of ^137 Cs irradiation dosages (0-1000 cGy) in the presence or absence of 20 mM TEA in the cell medium during irradiation.

[10] = test system: voltage-dependent potassium channel currents in TR-4 cells; conditions: 20 mM TEA in cell medium during current measurement; TR-4 cells heated 45° C. 10 min
Method: Voltage-Clamp Recordings. Whole-cell recording was performed by voltage clamp analysis as described by Hamill et al. (1981). In general, prior to whole cell recording, the cell medium was replaced with serum-free medium to ensure a better giga-ohm seal. Glass electrodes were prepared using a vertical pipette puller (model P30 from Sutter Instruments, Calif.). The tip diameter to be achieve depended upon the size of the cell-type being examined, but was generally between about 0.5 and 1 μm. Glass electrodes having a tip resistance of 3-7 Mohms were sylgarded (with Sylgard, Dow Chemical) and backfilled with a solution containing 140 mM KCl, 2 mM MgCl2, 11 mM EGTA, 1 mM CaCl2, and 10 mM Hepes, pH 7.2. […] The membrane seal resistance was determined from the reduction in voltage of the test pulse.
Membrane currents were filtered at 2 kHz using a 4-pole low pass Bessel filter before sampling with a 12-bit digital-analog converter controlled by a Labmaster board (Scientific Solutions) in an IBM AT computer. Leakage currents were subtracted from the total currents measured at each voltage either by using a p,p/4 algorithm (Armstrong and Bezanilla, 1974) built into the software (INDEC Systems, Santa Cruz, Calif.), or after determining the linear component from the current-voltage (I-V) relation near the holding potential of -75 mV. […]

C[S+](C)[O-] [DMSO, dimethylsulfoxide]
effect on level of cellular HSP70 ([1]; RIF-1 cells grown 7 days in 2% DMSO, heated 45° C. 10 min, analyzed directly or after 18 hour growth): no effect on the level of cellular HSP70
voltage-dependent potassium currents in DMSO-cultured cells after heating ([2]; heated 45° C. 10 min): exhibited voltage-dependent potassium currents
heat resistance of cells cultured in DMSO ([3]; RIF-1 cells cultured in 2% (v:v) DMSO for seven days, then heated at 45° C.): significantly more heat resistant
expression of K+ channel proteins recognized by ShA-3 antibody [4]: expressed at higher levels than in cells grown without DMSO; also recorded: increased with increasing duration of exposure

OO [Hydrogen peroxide, hydrogen peroxide]
induction of voltage-dependent potassium current ([5]; 3.0 μM final concentration in cell medium, measured within 30 seconds): sizeable voltage-dependent current

CC(=O)N[C@@H](CS)C(=O)O [N-acetylcysteine]
effect on induction of potassium currents by irradiation ([6]; 20 mM, 1 h preincubation and present during 150 cGy irradiation): effective to substantially reduce current induction

CC[N+](CC)(CC)CC.[Cl-] [TEA, Tetraethylammonium chloride]
effect on heat-induced activation of HSF [7]: eliminated most or all of the heat-induced activation of HSF
effect on levels of activated HSF [7]: no effect on the levels of activated HSF
inhibitory effect on expression of HSP70 (constitutive and inducible forms) ([1]; 20 mM TEA during heating 10 min 45° C., ShakerB-transfected vs mock-transfected RIF-1 cells): greater in the cells transfected with the ShakerB gene than in mock transfected cells; also recorded: greater in the cells transfected with the ShakerB gene than in the mock-transfected cells
effect on heat-induced currents in DMSO-cultured cells ([2]; 20 mM TEA in cell solution during current measurements): virtually abolished the currents
effect on development of thermotolerance [8]: little effect on the development of thermotolerance
effect on cytotoxicity of 137Cs irradiation [9]: cytotoxicity was increased somewhat
effect on survival rate after heating ([3]; 20 mM TEA during heating at 45° C. for 0-100 min, RIF-1 cells): no effect on the survival rate of the RIF-1 cells; also recorded: no effect on the survival rate of RIF-1 cells
effect on heat resistance of DMSO-cultured cells ([3]; 20 mM TEA in medium during heating, RIF-1 cells cultured 7 days in 2% DMSO): diminished heat resistance
effect on radiation-induced potassium currents ([6]; 20 mM TEA after 150 cGy 137Cs irradiation): reversible inhibition; also recorded: could be inhibited by TEA
effect on heat-induced voltage-dependent potassium currents [10]: abolished nearly all detectable current

Cc1cn([C@H]2C[C@H](O)[C@@H](CO)O2)c(=O)[nH]c1=O [[^3 H]thymidine]
induction of potassium currents ([5]; 2 μCi/ml for 16-18 hours prior to whole-cell recording): No potassium currents were observed
